Measurements from patent US20250368647A1, “NITROGEN CONTAINING CONDENSED 2,3-DIHYDROQUINAZOLINONE COMPOUNDS AS NAV1.8 INHIBITORS” (GLAXOSMITHKLINE INTELLECTUAL PROPERTY DEVELOPMENT LIMITED, priority 2022, published 2025).
Read-outs that look alike come from different tables or passages of the source. Each block holds one compound with its values, some of them ahead of it.

Legend:
human Nav1.8 = human Nav1.8 (Homo sapiens (Human), UniProt Q9Y5Y9); assay: QPatch 48 HTX voltage-clamp electrophysiology, half inactivation state (V1/2) protocol, HEK293-Nav1.8 cells; assay type: cell-based; conditions: HEK293 cells expressing human Nav1.8, human Navβ1 and human TREK1, P2 current; for IC50: read-out: Nav1.8, pIC50 (converted)
Sequence of human Nav1.8 (Q9Y5Y9 whole entry): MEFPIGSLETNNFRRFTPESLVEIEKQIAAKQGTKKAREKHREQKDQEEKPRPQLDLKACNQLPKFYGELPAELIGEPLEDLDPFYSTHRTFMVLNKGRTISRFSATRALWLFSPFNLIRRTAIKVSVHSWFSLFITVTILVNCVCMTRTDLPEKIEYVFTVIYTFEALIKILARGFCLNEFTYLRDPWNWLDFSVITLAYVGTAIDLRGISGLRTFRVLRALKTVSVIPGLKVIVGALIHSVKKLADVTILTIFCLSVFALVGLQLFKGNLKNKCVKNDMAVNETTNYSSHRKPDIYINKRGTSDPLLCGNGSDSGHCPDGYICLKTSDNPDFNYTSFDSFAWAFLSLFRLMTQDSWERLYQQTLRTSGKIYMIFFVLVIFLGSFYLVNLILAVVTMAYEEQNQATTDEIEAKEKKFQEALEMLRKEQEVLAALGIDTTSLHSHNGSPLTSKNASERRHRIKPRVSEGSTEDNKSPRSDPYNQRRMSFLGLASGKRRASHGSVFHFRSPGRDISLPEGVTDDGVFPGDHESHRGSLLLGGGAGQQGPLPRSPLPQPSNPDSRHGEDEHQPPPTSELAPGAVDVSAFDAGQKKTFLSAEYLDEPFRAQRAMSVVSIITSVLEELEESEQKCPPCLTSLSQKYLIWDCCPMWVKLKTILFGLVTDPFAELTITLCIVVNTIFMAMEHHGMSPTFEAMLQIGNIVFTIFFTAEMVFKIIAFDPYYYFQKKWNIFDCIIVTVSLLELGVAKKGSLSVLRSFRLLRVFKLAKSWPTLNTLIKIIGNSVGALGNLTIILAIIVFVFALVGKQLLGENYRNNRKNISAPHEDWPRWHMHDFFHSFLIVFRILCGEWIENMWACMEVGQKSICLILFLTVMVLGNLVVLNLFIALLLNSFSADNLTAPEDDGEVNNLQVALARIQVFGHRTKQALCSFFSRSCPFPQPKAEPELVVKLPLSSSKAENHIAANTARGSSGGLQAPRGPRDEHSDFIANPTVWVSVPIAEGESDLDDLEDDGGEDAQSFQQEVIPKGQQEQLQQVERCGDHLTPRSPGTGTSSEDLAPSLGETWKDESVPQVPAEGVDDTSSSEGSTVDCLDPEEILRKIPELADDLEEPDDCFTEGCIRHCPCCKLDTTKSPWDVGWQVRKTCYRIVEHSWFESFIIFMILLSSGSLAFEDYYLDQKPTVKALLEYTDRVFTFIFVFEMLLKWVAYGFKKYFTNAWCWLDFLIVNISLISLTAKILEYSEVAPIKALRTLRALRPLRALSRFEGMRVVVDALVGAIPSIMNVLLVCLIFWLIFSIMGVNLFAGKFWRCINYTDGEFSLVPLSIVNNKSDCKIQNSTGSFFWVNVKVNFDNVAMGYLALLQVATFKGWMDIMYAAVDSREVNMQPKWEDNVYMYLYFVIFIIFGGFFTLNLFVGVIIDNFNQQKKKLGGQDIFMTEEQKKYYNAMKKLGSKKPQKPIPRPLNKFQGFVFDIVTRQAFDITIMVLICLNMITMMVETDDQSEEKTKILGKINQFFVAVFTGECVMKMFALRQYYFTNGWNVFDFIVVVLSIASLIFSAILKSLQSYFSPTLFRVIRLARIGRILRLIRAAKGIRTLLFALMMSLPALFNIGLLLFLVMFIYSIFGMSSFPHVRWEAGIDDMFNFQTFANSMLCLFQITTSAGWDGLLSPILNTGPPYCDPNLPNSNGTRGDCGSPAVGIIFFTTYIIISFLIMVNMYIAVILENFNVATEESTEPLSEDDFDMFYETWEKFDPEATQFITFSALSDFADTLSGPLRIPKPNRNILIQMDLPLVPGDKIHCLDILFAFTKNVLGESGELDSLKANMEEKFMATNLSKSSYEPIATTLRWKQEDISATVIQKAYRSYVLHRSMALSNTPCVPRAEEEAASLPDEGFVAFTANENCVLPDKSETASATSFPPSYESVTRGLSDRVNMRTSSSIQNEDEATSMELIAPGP
Sequence of human Nav1.8 (Q07699 19-218 partner): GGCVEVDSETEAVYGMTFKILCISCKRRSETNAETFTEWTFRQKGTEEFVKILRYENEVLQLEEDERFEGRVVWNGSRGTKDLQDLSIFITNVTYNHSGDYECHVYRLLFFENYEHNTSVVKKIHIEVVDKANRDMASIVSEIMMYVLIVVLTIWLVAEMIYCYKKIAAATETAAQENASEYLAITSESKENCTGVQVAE
Outline: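 HEK293 cells co-expressing Navβ1 and TREK1 were voltage-clamped from −100 mV: a 20 ms step to 0 mV, 8 s inactivation at −46 mV, 20 ms at −100 mV, then a 20 ms P2 test step to 0 mV, repeated every 15 s. P2 current was normalized to vehicle and full block, corrected for run-down, and Hill-fitted (4–6 concentrations) for IC50.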

Compound: COc1ccc(NC(=O)c2cc(Cl)c(F)cc2Br)c(N(CCCc2cc(F)ccc2N)C(=O)OC(C)(C)C)n1
ring closure, isolated yield (the molecule shown is the open-chain precursor, other bond, 13-membered ring, CuI/DIEA, DMF, 21.9 mM, 95.0 °C): 29%

Compound: COc1ccc2c(n1)C(C)(C)CN(C(=O)OC(C)(C)C)Cc1cc(F)ccc1Nc1cc(C(F)(F)F)c(F)cc1C(=O)N2
ring closure, isolated yield (from COC(=O)c1cc(F)c(C(F)(F)F)cc1Nc1ccc(F)cc1CN(CC(C)(C)c1nc(OC)ccc1N)C(=O)OC(C)(C)C, amide bond, 13-membered ring, LiHMDS, THF, 104.0 mM, 16.0 h): 46%

Compound: COc1ccc2c(n1)C=CCCc1cc(F)ccc1N1CN2C(=O)c2cc(C(F)(F)F)ncc21
ring closure, isolated yield (from C=CCCc1cc(F)ccc1N1CN(c2ccc(OC)nc2/C=C\C)C(=O)c2cc(C(F)(F)F)ncc21, rcm bond, 11-membered ring, Hoveyda-Grubbs II, DCE, 80.0 °C, 18.5 h): 3%

Compound: COc1ccc2c(n1)C=CCc1cc(F)ccc1N1CN2C(=O)c2cc(C(F)(F)F)ccc21
ring closure, isolated yield (from C=CCc1cc(F)ccc1N1CN(c2ccc(OC)nc2C=C)C(=O)c2cc(C(F)(F)F)ccc21, rcm bond, 10-membered ring, Hoveyda-Grubbs II (20 mol%), DCE, 1.38 mM, 80.0 °C, 4.0 h): 72%

Compound: COc1ccc2c(n1)CC=CCCc1cc(F)ccc1N1CN2C(=O)c2cc(C(F)(F)F)ccc21
ring closure, isolated yield (from C=CCCc1cc(F)ccc1N1CN(c2ccc(OC)nc2CC=C)C(=O)c2cc(C(F)(F)F)ccc21, rcm bond, 12-membered ring, Hoveyda-Grubbs II (20 mol%), DCE, 50.3 mM, 80.0 °C, 18.0 h): 67%

Compound: COc1ccc2c(n1)CC=CCc1cc(F)ccc1N1CN2C(=O)c2cc(C(F)(F)F)ccc21
ring closure, isolated yield (from C=CCc1cc(F)ccc1N1CN(c2ccc(OC)nc2CC=C)C(=O)c2cc(C(F)(F)F)ccc21, rcm bond, 11-membered ring, Hoveyda-Grubbs II (20 mol%), DCE, 8.6 mM, 80.0 °C, 16.0 h): 68%

Compound: COc1ccc2c(n1)CC=CCc1cc(F)ccc1N1CN2C(=O)c2ccc(C(F)(F)F)cc21
ring closure, isolated yield (from C=CCc1cc(F)ccc1N1CN(c2ccc(OC)nc2CC=C)C(=O)c2ccc(C(F)(F)F)cc21, rcm bond, 11-membered ring, Hoveyda-Grubbs II (20 mol%), DCE, 8.6 mM, 80.0 °C, 16.0 h): 52%

Compound: COc1ccc2c(n1)CCC=CCc1cc(F)ccc1N1CN2C(=O)c2cc(Cl)cnc21
ring closure, isolated yield (from C=CCCc1nc(OC)ccc1N1CN(c2ccc(F)cc2CC=C)c2ncc(Cl)cc2C1=O, rcm bond, 12-membered ring, Hoveyda-Grubbs II, DCE, 80.0 °C, 1.0 h): 51%

Compound: COc1ccc2c(n1)N(C(=O)OC(C)(C)C)CCCc1c(ccc(F)c1F)Nc1cc(C(F)(F)F)c(F)cc1C(=O)N2
ring closure, isolated yield (from COc1ccc(N)c(N(CCCc2c(Nc3cc(C(F)(F)F)c(F)cc3C(=O)O)ccc(F)c2F)C(=O)OC(C)(C)C)n1, amide bond, 13-membered ring, PyOxim/DIEA, DMF, 129.0 mM, 24.0 h): 72%

Compound: COc1ccc2c(n1)N(C(=O)OC(C)(C)C)CCCc1cc(F)ccc1Nc1ccc(C(F)(F)F)cc1C(=O)N2
ring closure, isolated yield (from COc1ccc(N)c(N(CCCc2cc(F)ccc2Nc2ccc(C(F)(F)F)cc2C(=O)O)C(=O)OC(C)(C)C)n1, amide bond, 13-membered ring, PyOxim/DIEA, DMF, 95.4 mM, 2.0 h): 80%

Compound: COc1ccc2c(n1)NCCCCc1cc(F)ccc1N1CN2C(=O)c2cc(C(F)(F)F)ccc21
ring closure, isolated yield (from COc1ccc(N2CN(c3ccc(F)cc3CCCCN)c3ccc(C(F)(F)F)cc3C2=O)c(Br)n1, cn_pd bond, 12-membered ring, Pd2(dba)3/BINAP/NaOtBu, toluene, 71.0 mM, 90.0 °C, 3.0 h): 40%

Compound: COc1ccc2c(n1)NCCOCc1cc(F)ccc1N1CN2C(=O)c2cc(F)c(C(F)(F)F)cc21
ring closure, isolated yield (from COc1ccc(N2CN(c3ccc(F)cc3COCCN)c3cc(C(F)(F)F)c(F)cc3C2=O)c(Br)n1, cn_pd bond, 12-membered ring, Pd2(dba)3/BINAP/NaOtBu, toluene, 46.4 mM, 100.0 °C, 4.0 h): 37%

Compound: O=C1c2cc(C(F)(F)F)ccc2N2CN1c1ccncc1CC=CCCc1cc(F)ccc12
ring closure, isolated yield (from C=CCCc1cc(F)ccc1N1CN(c2ccncc2CC=C)C(=O)c2cc(C(F)(F)F)ccc21, rcm bond, 12-membered ring, Greencat-iPr, DCE, 80.0 °C, 4.0 h): 40%

Compound: 3^4-fluoro-1^6-methoxy-2^7-(trifluoromethyl)-2^1,2^2,2^3,2^4-tetrahydro-4-oxa-2(3,1)-quinazolina-1(3,2)-pyridina-3(1,2)-benzenacyclo octaphane-6-en-2^4-one
ring closure, isolated yield (rcm bond, 12-membered ring, Hoveyda-Grubbs M722 (Grubbs C711), 80.0 °C): 7%

Nav1.8, pIC50 (human Nav1.8): 7.4
Compound: C[C@H]1NCCc2[nH]c(=O)ccc2N2CN(c3cc(Cl)c(F)cc3C2=O)c2ccc(F)cc21 [Example 121, (10R)-3-chloro-2,8-difluoro-10-methyl-10,11,12,13-tetrahydro-19H-5,18-methanodibenzo[c,f]pyrido[3,2-j][1,5,9]triazacyclotridecine-15,19(14H)-dione]

Nav1.8, pIC50 (human Nav1.8): 5.9
Compound: C[C@@H]1NCCc2[nH]c(=O)ccc2N2CN(c3cc(Cl)c(F)cc3C2=O)c2ccc(F)cc21 [Example 122, (10S)-3-chloro-2,8-difluoro-10-methyl-10,11,12,13-tetrahydro-19H-5,18-methanodibenzo[c,f]pyrido[3,2-j][1,5,9]triazacyclotridecine-15,19(14H)-dione]

Nav1.8, pIC50 (human Nav1.8): 7
Compound: CCC1NCCc2[nH]c(=O)ccc2N2CN(c3cc(C(F)(F)F)c(F)cc3C2=O)c2ccc(F)cc21.Cl (stereo not drawn) [Example 126, 10-Ethyl-2,8-difluoro-3-(trifluoromethyl)-10,11,12,13-tetrahydro-19H-5,18-methanodibenzo[c,f]pyrido[3,2-j][1,5,9]triazacyclotridecine-15,19(14H)-dione hydrochloride]

IC50 (human Nav1.8): 0.0631 µM
Compound: CC[C@H]1NCCc2[nH]c(=O)ccc2N2CN(c3cc(C(F)(F)F)c(F)cc3C2=O)c2ccc(F)cc21 [Example 127, (10R)-10-ethyl-2,8-difluoro-3-(trifluoromethyl)-10,11,12,13-tetrahydro-19H-5,18-methanodibenzo[c,f]pyrido[3,2-j][1,5,9]triazacyclotridecine-15,19(14H)-dione]

IC50 (human Nav1.8): 0.631 µM
Compound: CC[C@@H]1NCCc2[nH]c(=O)ccc2N2CN(c3cc(C(F)(F)F)c(F)cc3C2=O)c2ccc(F)cc21 [Example 128, (10S)-10-ethyl-2,8-difluoro-3-(trifluoromethyl)-10,11,12,13-tetrahydro-19H-5,18-methanodibenzo[c,f]pyrido[3,2-j][1,5,9]triazacyclotridecine-15,19(14H)-dione]

Nav1.8, pIC50 (human Nav1.8): 6.4
Compound: O=C1c2cc(F)c(C(F)(F)F)cc2N2CN1c1ccc(=O)[nH]c1NCCOCc1cc(F)ccc12 [Example 129, 2^6,3^4-Difluoro-2^7-(trifluoromethyl)-1^1,1^2,2^1,2^2,2^3,2^4-hexahydro-5-oxa-8-aza-2(3,1)-quinazolina-1(5,6)-pyridina-3(1,2)-benzenacyclooctaphane-1^2,2^4-dione]

Nav1.8, pIC50 (human Nav1.8): 6.8
Compound: CC1CCc2c(ccc(F)c2F)N2CN(C(=O)c3cc(F)c(C(F)(F)F)cc32)c2ccc(=O)[nH]c2N1 (stereo not drawn) [Example 130, 2,8,9-Trifluoro-12-methyl-3-(trifluoromethyl)-10,11,12,13-tetrahydro-19H-5,18-methanodibenzo[f,i]pyrido[2,3-b][1,4,8]triazacyclotridecin-15,19(14H)-dione]

IC50 (human Nav1.8): 0.00631 µM
Compound: C[C@H]1CCNc2[nH]c(=O)ccc2N2CN(c3cc(C(F)(F)F)c(F)cc3C2=O)c2ccc(F)c(F)c21 [Example 132, (10S)-2,8,9-trifluoro-10-methyl-3-(trifluoromethyl)-10,11,12,13-tetrahydro-19H-5,18-methanodibenzo[f,i]pyrido[2,3-b][1,4,8]triazacyclotridecine-15,19(14H)-dione]

IC50 (human Nav1.8): 0.0398 µM
Compound: C[C@@H]1CCNc2[nH]c(=O)ccc2N2CN(c3cc(C(F)(F)F)c(F)cc3C2=O)c2ccc(F)c(F)c21 [Example 133, (10R)-2,8,9-trifluoro-10-methyl-3-(trifluoromethyl)-10,11,12,13-tetrahydro-19H-5,18-methanodibenzo[f,i]pyrido[2,3-b][1,4,8]triazacyclotridecine-15,19(14H)-dione]

Nav1.8, pIC50 (human Nav1.8): 7.3
Compound: CC1(C)CNCc2cc(F)ccc2N2CN(C(=O)c3cc(F)c(C(F)(F)F)cc32)c2ccc(=O)[nH]c21 [Example 134, 2,8-Difluoro-13,13-dimethyl-3-(trifluoromethyl)-10,11,12,13-tetrahydro-19H-5,18-methanodibenzo[c,f]pyrido[3,2-j][1,5,9]triazacyclotridecine-15,19(14H)-dione]

Nav1.8, pIC50 (human Nav1.8): 7.4
Compound: Cl.O=C1c2cc(F)c(C(F)(F)F)cc2N2CN1c1ccc(=O)[nH]c1NCCNCc1c2ccc(F)c1F [Example 135, 2^6,3^3,3^4-Trifluoro-2^7-(trifluoromethyl)-1^1,1^2,2^1,2^2,2^3,2^4-hexahydro-5,8-diaza-2(3,1)-quinazolina-1(5,6)-pyridina-3(1,2)-benzenacyclooctaphane-1^2,2^4-dione hydrochloride]

Nav1.8, pIC50 (human Nav1.8): 6.9
Compound: C[C@H]1NCCCc2[nH]c(=O)ccc2N2CN(c3cc(C(F)(F)F)c(F)cc3C2=O)c2ccc(F)cc21 [Example 136, (4R)-2^6,3^4-Difluoro-4-methyl-2^7-(trifluoromethyl)-1^1,1^2,2^1,2^2,2^3,2^4-hexahydro-5-aza-2(3,1)-quinazolina-1(5,6)-pyridina-3(1,2)-benzenacyclooctaphane-1^2,2^4-dione]

Nav1.8, pIC50 (human Nav1.8): 6.6
Compound: C[C@@H]1NCCCc2[nH]c(=O)ccc2N2CN(c3cc(C(F)(F)F)c(F)cc3C2=O)c2ccc(F)cc21 [Example 137, (4S)-2^6,3^4-Difluoro-4-methyl-2^7-(trifluoromethyl)-1^1,1^2,2^1,2^2,2^3,2^4-hexahydro-5-aza-2(3,1)-quinazolina-1(5,6)-pyridina-3(1,2)-benzenacyclooctaphane-1^2,2^4-dione]
